Assay results reported in US11179415B1 (priority 2020, dated 2021).
Where two headings read alike, the source gives them in different places.

What was measured:
[1] = mouse; in drinking water up to several months; doses as high as 1000 mg/liter (1000 ppm or 0.1%); cited from earlier work
[2] = rat; in drinking water up to several months; doses as high as 1000 mg/liter (1000 ppm or 0.1%); cited from earlier work
[3] = chicken; in drinking water up to several months; doses as high as 1000 mg/liter (1000 ppm or 0.1%); cited from earlier work
[4] = test system: common cold; assay: inventor's self-use of CLO2 to prevent the common cold; type: in vivo, human; settings: 5 ppm CLO2 nasal drops only, several drops per nostril 2 times per day, 3 days from prodromal period; one person
[5] = test system: Coronavirus SARS CoV-2; settings: Fact Sheet, National Agricultural Biosecurity Center, Kansas State University; cited from earlier work
[6] = OSHA, cited from earlier work
[7] = test system: human Coronavirus; settings: BASF Aseptrol Label, EPA Registration Number 70060-19; cited from earlier work
[8] = test system: SARS CoV-2; settings: in vivo
[9] = man; daily ingestion of 500 ml CLO2 at 5 ppm; cited from earlier work

SMILES	methemoglobin concentrations [1]	methemoglobin concentrations [2]	methemoglobin concentrations [3]	development of a common cold [4]	virucidal activity against SARS CoV-2 [5]	concentration safe for an 8-hour exposure ([6]; 8-hour exposure) [ppm]	concentration safe for short-time exposure limit (STEL) ([6]; STEL of 15 minutes) [ppm]	efficacy against human Coronavirus [7]	lung irritation after inhalation of aerosol fog [8]	symptoms after contracting SARS CoV-2 [8]	tolerability of daily ingestion [9]
[O-][Cl+2]([O-])O [CLO3]	no significant increases	no significant increases	no significant increases	–	–	–	–	–	–	–	–
[O][Cl+][O-] [CLO2, chlorine dioxide]	no significant increases	no significant increases	no significant increases	a cold never developed	kills the Coronavirus SARS CoV-2	0.1	0.3	effective against human Coronavirus	no resulting lung irritation	only little to slight symptoms	safely tolerated
